From publication PMC7862291, “Full-length in meso structure and mechanism of rat kynurenine 3-monooxygenase inhibition” (Communications Biology, 2021)
Read-outs that look alike come from different tables or passages of the source.

How the values were obtained:
hKMO = biological target: T1, hKMO (Homo sapiens, UniProt O15229); test: Human KMO enzyme (cell-free) assay, NADPH consumption by absorbance; type: biochemical
T1 construct: purchased Origene
Protocol: (§1) Human KMO was purchased from Origene and used to assay compounds. Full-length Rat-KMO purified for crystallisation was used to assay compounds. Full-length Rat-KMO-expressing membranes were used for mutant assays (Fig. 4b) only. […] Images were taken using Odyssey CLX (LI-COR Biosciences) and quantified using ImageStudio2.0 (LI-COR Biosciences) software.
(§2) Test compounds were dissolved in DMSO and diluted with assay buffer containing 50 mM HEPES, 2 mM MgCl2, 0.5 mM EGTA, 1 mM DTT, 0.05% Tween20 and 0.005% of antiform SI (pH = about 7.9) to prepare a 4% DMSO solution. […] After 5 min of pre-incubation, reactions were started by adding 10 μL of substrate solution containing 2.4 mM kynurenine and 0.6 mM NADPH. Reactions were run for 90 min at 30 °C, then terminated by adding 5 μL of stop buffer (40 mM maleimide, 2 mM WST-9 and 0.1 mM 1-methoky PMS in water). […] Liposomal assays were performed in the same manner except that the composition of the assay buffer was changed (phosphate-buffered saline, 2 mM MgCl2, 1 mM DTT, 0.05% Tween 20).
(§3) Compound assays were analysed and plotted on graphs using Prism (GraphPad Software Inc. San Diego, CA, USA).

Rat KMO = biological target: T2, Rat KMO (Rattus norvegicus, UniProt O88867); test: Rat KMO enzyme (cell-free) assay, NADPH consumption by absorbance; type: biochemical
T2 construct: The GST-tagged full-length KMO (1-478) baculovirus vector contained a thrombin cleavage site; GST (thrombin cleavage site between GST and KMO) (N, cleaved yes); made in house; host or cells: Spodoptera frugiperda (Sf9), baculovirus
T2 sequence (O88867 whole entry): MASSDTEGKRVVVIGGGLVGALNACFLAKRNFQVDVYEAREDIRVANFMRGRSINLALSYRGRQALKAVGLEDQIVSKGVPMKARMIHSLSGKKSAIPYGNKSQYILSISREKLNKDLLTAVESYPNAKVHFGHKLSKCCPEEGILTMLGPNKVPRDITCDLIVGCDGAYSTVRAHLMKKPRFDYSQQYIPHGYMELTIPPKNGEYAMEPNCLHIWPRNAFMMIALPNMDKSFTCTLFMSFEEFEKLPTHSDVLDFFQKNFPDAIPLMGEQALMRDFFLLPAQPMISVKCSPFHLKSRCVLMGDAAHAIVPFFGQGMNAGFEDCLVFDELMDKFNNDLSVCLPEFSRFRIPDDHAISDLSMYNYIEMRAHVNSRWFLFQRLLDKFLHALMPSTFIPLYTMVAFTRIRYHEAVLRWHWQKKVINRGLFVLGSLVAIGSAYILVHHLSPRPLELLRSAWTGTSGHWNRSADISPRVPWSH
Protocol: as §1, §2, §3

[1] = Pharmacokinetic (brain penetration) study in rats; type: in vivo; details: Sprague-Dawley Crl:CD(SD), rat, male SD rats, 10 mg/kg ip, 1 h after a single administration
Protocol: Brain penetration studies were conducted in non-fasted male SD rats [Sprague-Dawley rats Crl:CD(SD), 8 weeks of age]. Compound 1 was intraperitoneally (ip) administered at 10 mg/kg in a solution of saline containing 10% dimethylformamide, 10% propylene glycol, and 4% 1 normality (N) sodium hydrate. […] Blood and brain were collected at 1 h after a single administration. The test compound in plasma samples or brain samples was extracted by deproteination with acetonitrile, and then analysed using LC-MS/MS.

T1 sequence (O15229 whole entry): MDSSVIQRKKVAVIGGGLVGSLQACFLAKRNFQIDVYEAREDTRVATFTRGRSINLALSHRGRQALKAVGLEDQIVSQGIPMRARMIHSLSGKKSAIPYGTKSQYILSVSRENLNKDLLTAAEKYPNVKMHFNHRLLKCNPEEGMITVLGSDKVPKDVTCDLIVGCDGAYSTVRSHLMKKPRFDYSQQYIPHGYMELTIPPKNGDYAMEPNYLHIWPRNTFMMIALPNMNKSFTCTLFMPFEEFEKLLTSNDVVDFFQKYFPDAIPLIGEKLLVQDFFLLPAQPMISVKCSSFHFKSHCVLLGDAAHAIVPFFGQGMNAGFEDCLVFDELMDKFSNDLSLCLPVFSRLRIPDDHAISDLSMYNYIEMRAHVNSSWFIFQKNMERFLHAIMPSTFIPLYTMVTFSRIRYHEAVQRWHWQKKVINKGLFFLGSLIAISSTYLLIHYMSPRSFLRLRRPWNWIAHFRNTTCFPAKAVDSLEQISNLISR

In the case of `COc1ccc2c(c1)CN(c1nc(C(=O)N(C)c3cc(Cl)c(F)cc3C(=O)O)c(Cl)s1)C2` [Compound 4], the IC50 (hKMO; cell-free enzyme assay, high kynurenine, read-out: Human KMO IC50) is reported as 0.014 µM, the inhibition at 0.0003 µM (hKMO; conc 0.0003 μM, duplicates, read-out: inhibition rate, Hs-KMO cell-free assay (Figure 1A source data)) is reported as 8.45% and the “inhibition rate, Hs-KMO cell-free assay (Figure 1A source data)” value (from here on “inhibition rate, Hs-KMO cell-free assay”) (hKMO; conc 0.001 μM, duplicates) is reported as 6.826%. For the same compound, the inhibition at 0.001 µM (hKMO; conc 0.001 μM, duplicates, read-out: inhibition rate, Hs-KMO cell-free assay (Figure 1A source data)) was 4.54%, the “inhibition rate, Hs-KMO cell-free assay” value (hKMO; conc 0.003 μM, duplicates) was 16.103% and the inhibition at 0.003 µM (hKMO; conc 0.003 μM, duplicates, read-out: inhibition rate, Hs-KMO cell-free assay (Figure 1A source data)) was 15.5%. The “inhibition rate, Hs-KMO cell-free assay” value (hKMO; conc 0.01 μM, duplicates) was 39.429%, the inhibition at 0.01 µM (hKMO; conc 0.01 μM, duplicates, read-out: inhibition rate, Hs-KMO cell-free assay (Figure 1A source data)) was 34.9% and the “inhibition rate, Hs-KMO cell-free assay” value (hKMO; conc 0.03 μM, duplicates) was 71.311%. The inhibition at 0.03 µM (hKMO; conc 0.03 μM, duplicates, read-out: inhibition rate, Hs-KMO cell-free assay (Figure 1A source data)) was 74.2%, the “inhibition rate, Hs-KMO cell-free assay” value (hKMO; conc 0.1 μM, duplicates) was 87.583% and the inhibition at 0.1 µM (hKMO; conc 0.1 μM, duplicates, read-out: inhibition rate, Hs-KMO cell-free assay (Figure 1A source data)) was 92.8%. The “inhibition rate, Hs-KMO cell-free assay” value (hKMO; conc 0.3 μM, duplicates) was 98.840%, the inhibition at 0.3 µM (hKMO; conc 0.3 μM, duplicates, read-out: inhibition rate, Hs-KMO cell-free assay (Figure 1A source data)) was 106% and the “inhibition rate, Hs-KMO cell-free assay” value (hKMO; conc 1 μM, duplicates) was 98.570%. For the same compound, the inhibition at 1 µM (hKMO; conc 1 μM, duplicates, read-out: inhibition rate, Hs-KMO cell-free assay (Figure 1A source data)) was 104%, the IC50 (Rat KMO; cell-free enzyme assay, high kynurenine) was 0.017 µM and the “inhibition rate, Rat-KMO cell-free assay (Figure 1B source data)” value (“inhibition rate, Rat-KMO cell-free assay” below) (Rat KMO; conc 0.0003 μM, duplicates) was 10.786%. The inhibition at 0.0003 µM (Rat KMO; conc 0.0003 μM, duplicates, read-out: inhibition rate, Rat-KMO cell-free assay (Figure 1B source data)) was 11.1%, the “inhibition rate, Rat-KMO cell-free assay” value (Rat KMO; conc 0.001 μM, duplicates) was 13.043% and the inhibition at 0.001 µM (Rat KMO; conc 0.001 μM, duplicates, read-out: inhibition rate, Rat-KMO cell-free assay (Figure 1B source data)) was 12.6%. The “inhibition rate, Rat-KMO cell-free assay” value (Rat KMO; conc 0.003 μM, duplicates) was 19.707%, the inhibition at 0.003 µM (Rat KMO; conc 0.003 μM, duplicates, read-out: inhibition rate, Rat-KMO cell-free assay (Figure 1B source data)) was 21.2% and the “inhibition rate, Rat-KMO cell-free assay” value (Rat KMO; conc 0.01 μM, duplicates) was 32.767%. For the same compound, the inhibition at 0.01 µM (Rat KMO; conc 0.01 μM, duplicates, read-out: inhibition rate, Rat-KMO cell-free assay (Figure 1B source data)) was 33%, the “inhibition rate, Rat-KMO cell-free assay” value (Rat KMO; conc 0.03 μM, duplicates) was 60.579% and the inhibition at 0.03 µM (Rat KMO; conc 0.03 μM, duplicates, read-out: inhibition rate, Rat-KMO cell-free assay (Figure 1B source data)) was 60.5%. For the same compound, the “inhibition rate, Rat-KMO cell-free assay” value (Rat KMO; conc 0.1 μM, duplicates) was 80.975%, the inhibition at 0.1 µM (Rat KMO; conc 0.1 μM, duplicates, read-out: inhibition rate, Rat-KMO cell-free assay (Figure 1B source data)) was 83% and the “inhibition rate, Rat-KMO cell-free assay” value (Rat KMO; conc 0.3 μM, duplicates) was 95.593%. The inhibition at 0.3 µM (Rat KMO; conc 0.3 μM, duplicates, read-out: inhibition rate, Rat-KMO cell-free assay (Figure 1B source data)) was 101%, the “inhibition rate, Rat-KMO cell-free assay” value (Rat KMO; conc 1 μM, duplicates) was 93.954% and the inhibition at 1 µM (Rat KMO; conc 1 μM, duplicates, read-out: inhibition rate, Rat-KMO cell-free assay (Figure 1B source data)) was 97.8%.

`Cn1c(=O)[nH]c(=O)c2cc(-c3ncccc3-c3ccc(Cl)c(F)c3)ccc21` [Compound 5] showed a Kp at 1 h ([1]; brain/plasma) of 0.8, a concentration at 1 h ([1]; brain, read-out: Exposure in brain) of 6020 ng/g and a concentration at 1 h ([1]; plasma, read-out: Exposure in plasma) of 7560 ng/mL.
